Assay results as given in patent publication US7189751B2, “Oxa(thia)zolidine compounds, process for preparation thereof and anti-inflammatory agents” (Nippon Soda Co., Ltd., priority 2001, dated 2007).

How the values were obtained:
[1] = test system: Mouse Ear Edema Induced by TPA; experiment: Mouse ear edema induced by TPA; format: in vivo; conditions: topical, 0.3 mg/20 μL/ear × 2; ICR male mouse; 6 hours after TPA
Procedure: Pharmacological Test Example 2: Mouse Ear Edema Induced by TPA
This test was carried out referring to the method of Carlson, R. P. et al. (Agents and Actions, 17(2): 197–204 (1985).) and the method of Chang, J. (European Journal of Pharmacology, 142: 197–205 (1987).). More specifically, 5 μg/20 μL of TPA (Sigma Chemical Co.), dissolved with ethanol, was topically applied to the anterior and posterior surfaces of the right ear of an ICR-strain male mouse (6–7 weeks old). 6 hours later, the thickness of each ear at the particular part was respectively measured three times using a digimatic micrometer to calculate the mean value. Ear edema was determined by subtracting the mean thickness of the left ear as without treatment from that of the right ear as TPA-applied. Topical application activity was evaluated by applying an acetone solution of the compound of the present invention or 0.1% Tween 80/acetone solution thereof similarly to the anterior and posterior surfaces of the right ear 30 min. before and 15 min. after the TPA-application. […] Oral administration activity was evaluated by administrating 0.2% Tween 80 suspension of the compound of the present invention forcibly and perorally to the mouse an hour prior to the TPA-application. As the positive control, 100 mg/kg of Hydrocortisone (Sigma Chemical Co., H 4001) suspension was applied to the mouse similarly as for the compound of the present invention.

[2] = test system: acetic acid induced writhes; experiment: Acetic acid writhing; format: in vivo, mouse
Procedure: Pharmacological Test Example 4: Acetic Acid Wirthing
This test was carried out referring to the method of Inoue, K., Motonaga, A. & Nishimura, T (Arzneimittel Forshung/Drug Research, 41 (1): 235–239 (1991)). More specifically, 7.5 mL/kg of 0.9% acetic acid solution was injected intraperitoneally into an ICR-strain male mouse (5 to 7 weeks old), and the induced writhes (characteristic behaviors of convulsive contracting the abdomen, twisting the body and/or extending the legs) were observed. Number of writhes of each mouse was measured during 10 to 20 min. period after acetic acid administration. […] The analgesic activity of the compounds according to the present invention was evaluated on the basis of the degree of inhibiting the number writhes by the administration of the compounds. As the positive control, indomethacin or aspirin was administrated. The analgesic activity of the compounds according to the present invention measured in this test were exemplified in Table 7.

[3] = test system: Mouse Delayed Contact Dermatitis Induced by Picryl Chloride; experiment: Mouse delayed contact dermatitis induced by picryl chloride; format: in vivo
Procedure: Pharmacological Test Example 3 Mouse Delayed Contact Dermatitis Induced by Picryl Chloride
This pharmacological test was carried out referring to the method of Asherson, G. L. & Ptak, W. (Immunology, 15: 405–416 (1968).) and the method of Jun Hiroi (Folia Pharmacology of Japan, 86: 233–239 (1985).). More specifically, hairs on the abdomen of an ICR-strain male mouse were removed using an electric clipper and an electric shaver. Then, 0.1 mL of 7% ether solution of picryl chloride (Tokyo Kasei Kogyo Co., Ltd., C 0307) was applied onto the abdomen for sensitization. On the sixth day after the sensitization, 20 μL/ear of 1% olive oil solution of picryl chloride was topically applied to the anterior and posterior surfaces of both ears of the mouse to induce contact dermatitis (first induction). Before and 24 hours after the induction, the thicknesses of the particular parts on the both ears were measured three times, respectively, using a digimatic micrometer (Mitsutoyo Co., Ltd.) to work out the average values. Ear edema of the both ears was respectively determined by subtracting the average thickness of the each ear before the induction from that on 24 hours after the induction, so that a grouping was carried out to separate the appropriate individuals. On the fourth day after the first induction, the hairs on the abdomen were removed again, and 0.1 mL of 7% ethanol solution of picryl chloride was applied thereto for additional sensitization. The contact dermatitis for evaluating activity was induced by re-applying 20 μL/ear of 1% olive oil solution of picryl chloride to the anterior and posterior surfaces of both ears (second induction) on the seventh day after the additional sensitization (on the […] after the first sensitization). The activity of each compound of the present invention was evaluated as the inhibition on the contact dermatitis as compared with that of the vehicle applied control. That is, the thicknesses of the particular portions of the both ears were measured respectively three times with a digimatic micrometer to work out the mean values before, 24 hours and 48 hours after the second induction. Ear swelling was determined by subtracting the ear thickness before the second induction from that on 24 hours and 48 hours after the second induction, respectively. Topical application activity was evaluated by applying 25 μL of the acetone solution of the compound of the present invention similarly to the anterior and posterior surfaces of the right ear one hour before and 16 hours after the second induction. As the positive control, 0.02 mg/20 μL of acetone solution of Dexamethasone (hereinafter referred to as DEX, Wako Pure Chemical Industries Ltd., 047-18863) was applied similarly as for the compound of the present invention. With respect to the inhibitory activity in topical application tests, the topical activity was determined by the inhibition of the applied right ear edema, and the translocation and distribution property was determined by the activity onto the swelling of non-treated left ear. Oral administration activity was evaluated by administrating 0.5% methyl cellulose suspension of the compound of the present invention forcibly and perorally to the mouse an hour before and 16 hours after the second induction. As the positive control, 20 mg/kg of Prednisolone (Sigma Chemical Co., P 6004) suspension was administrated similarly as for the compounds of the present invention. […] As the examples, the body weight changes in the mice for 48 hours after the second induction when they were administrated with the compounds shown in Table 5 are shown in Table 6.

CCOC(=O)C(=C1N[C@@H](C)[C@H](c2ccc(Cl)cc2)S1)[N+](=O)[O-] (relative stereo) [Compound 2-29, Trans-5-(4-chlorophenyl)-4-methyl-2-(1-ethoxycarbonyl-1-nitromethylene)-thiazolidine]
Ear Edema Inhibition (%) [1]: 78.6%
Number of writhes (Mean ± S.E.) ([2]; i.p. 1 mg/kg, 30 min before, vehicle i.p. 25.2 ± 2.2): 5.5 ± 1.9
Number of writhes (Mean ± S.E.) ([2]; p.o. 10 mg/kg, 120 min before, vehicle p.o. 23.5 ± 3.1): 1.5 ± 0.7
Change in body weight 48 hours after induction (Mean ± S.E.) ([3]; 1.5 mg/ear × 2, vehicle control −0.45 ± 0.20): -0.06 ± 0.15 g
Change in body weight 48 hours after induction (Mean ± S.E.) (%) ([3]; 1.5 mg/ear × 2, vehicle control −1.29 ± 0.59): −0.20 ± 0.48%
Ear swelling after 24 hours, Right (Applied) (Mean ± S.E., mm) ([3]; topical 1.5 mg/25 μL/ear × 2, vehicle control 0.299 ± 0.006): 0.261 ± 0.012 mm
Ear swelling after 24 hours, Left (Not applied) (Mean ± S.E., mm) ([3]; topical 1.5 mg/25 μL/ear × 2 on right ear, vehicle control 0.284 ± 0.008): 0.243 ± 0.020 mm
